Laboratory results as given in US8916183B2, “Pesticidal compositions and processes related thereto” (priority 2012, dated 2014).

What was measured:
Format in all cases: in vivo
[1] = test system: Corn Earworm (CEW) (Helicoverpa zea); assay: Bioassay on corn earworm (CEW), 128-well diet tray assay; details: corn earworm, 50 μg/cm^2; for mortality at 50 µg/cm2: Helicoverpa zea, read-out: % Mortality CEW 50 μg/cm^2
Procedure, shortened: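 Larvae in a 128-well diet tray were held at 25° C under 14:10 light-dark for five to seven days. Percent mortality was scored per well and averaged over eight wells, then reported on a rating scale.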

[2] = test system: Green Peach Aphid (GPA) (Myzus persicae); assay: Bioassay on green peach aphid (GPA), foliar spray on cabbage seedlings; details: green peach aphid, 200 ppm, read-out: % Mortality GPA 200 ppm
Description: Certain molecules disclosed in this document were tested against GPA using procedures described in the following example. In the reporting of the results, the “GPA Rating Table” was used (See Table Section).
Cabbage seedlings grown in 3-inch pots, with 2-3 small (3-5 cm) true leaves, were used as test substrate. The seedlings were infested with 20-50 GPA (wingless adult and nymph stages) one day prior to chemical application. Four pots with individual seedlings were used for each treatment. Test compounds (2 mg) were dissolved in 2 mL of acetone/methanol (1:1) solvent, forming stock solutions of 1000 ppm test compound. […] A hand-held aspirator-type sprayer was used for spraying a solution to both sides of […] leaves until runoff. Reference plants (solvent check) were sprayed with the diluent only containing 20% by volume of acetone/methanol (1:1) solvent. Treated plants were held in a holding room for three days at approximately 25° C. and ambient relative humidity (RH) prior to grading. Evaluation was conducted by counting the number of live aphids per plant under a microscope. […] Corrected % Control=100*(X−Y)/X • where • X=No. of live aphids on solvent check plants and • Y=No. of live aphids on treated plants
The results are indicated in the table entitled “Table 5: Biological Results” (See Table Section).

[3] = test system: Beet Armyworm (BAW) (Spodoptera exigua); assay: Bioassay on beet armyworm (BAW), 128-well diet tray assay; details: beet armyworm, 50 μg/cm^2; for mortality at 50 µg/cm2: Spodoptera exigua, read-out: % Mortality BAW 50 μg/cm^2

Structure (SMILES) | mortality at 50 µg/cm2 [1] [%] | mortality at 200 ppm [2] [%] | mortality at 50 µg/cm2 [3] [%] | % Mortality CEW 50 μg/cm^2 [1] | % Mortality BAW 50 μg/cm^2 [3]
COc1cc(C)c(/N=C(/N/N=C/c2ccc(-c3ncn(-c4ccc(OC(F)(F)F)cc4)n3)cc2)SCC(=O)NCCCN)c(C)c1 [Compound 64C] | 50 to 100 | 0 | 50 to 100 |  | 
COc1cc(C)c(/N=C(/N/N=C/c2ccc(-c3ncn(-c4ccc(OC(F)(F)F)cc4)n3)cc2)SCC(=O)C2CCNCC2)c(C)c1 [Compound 65C] | 50 to 100 | 0 to 80 | 50 to 100 |  | 
Cc1cccc(C)c1/N=C(/N/N=C/c1ccc(-c2ncn(-c3ccc(OC(F)(F)F)cc3)n2)cc1)SCC(=O)NCCCN [Compound 66C] | 50 to 100 | 0 to 80 | 50 to 100 |  | 
Cc1cccc(C)c1/N=C(/N/N=C/c1ccc(-c2ncn(-c3ccc(OC(F)(F)F)cc3)n2)cc1)SCC(=O)N1CCNCC1 [Compound 67C] | 50 to 100 | 0 | 50 to 100 |  | 
COc1cc(C)c(/N=C(/N/N=C/c2ccc(-c3ncn(-c4ccc(OC(F)(F)F)cc4)n3)cc2)SCC(=O)O)c(C)c1.[Na+] [Compound 68C, 2-(((Z)-((4-methoxy-2,6-dimethylphenyl)imino)((E)-2-(4-(1-(4-(trifluoromethoxy)phenyl)-1H-1,2,4-triazol-3-yl)benzylidene)hydrazinyl)methyl)-thio)acetic acid sodium salt] |  | 0 to 80 |  | A (50-100) | A (50-100)
O=C1CS/C(=N\N=C\c2ccc(-c3ncn(-c4ccc(OC(F)(F)F)cc4)n3)cc2)N1c1c(Cl)cccc1Cl [Compound 70C] | 50 to 100 | 0 | 50 to 100 |  | 
Cc1cccc(C)c1N1C(=O)CS/C1=N\N=C\c1ccc(-c2ncn(-c3ccc(OC(F)(F)F)cc3)n2)cc1 [Compound 71C] | 50 to 100 | 0 | 50 to 100 |  | 
Cc1cc(C)c(N2C(=O)CS/C2=N\N=C\c2ccc(-c3ncn(-c4ccc(OC(F)(F)F)cc4)n3)cc2)c(C)c1 [Compound 72C] | 50 to 100 | 0 to 80 | 50 to 100 |  | 
CCN(CC)c1ccc(-c2cs/c(=N\N=Cc3ccc(-c4ncn(-c5ccc(OC(F)(F)F)cc5)n4)cc3)n2-c2c(C)cccc2C)cc1 [Compound 74C] | 50 to 100 | 0 | 50 to 100 |  | 
Cc1cccc(C)c1-n1c(-c2nccs2)cs/c1=N\N=Cc1ccc(-c2ncn(-c3ccc(OC(F)(F)F)cc3)n2)cc1 [Compound 75C] | 50 to 100 | 0 to 80 | 50 to 100 |  | 
Cc1cccc(C)c1-n1c(-c2cc(-c3ccc(Cl)cc3)no2)cs/c1=N\N=C\c1ccc(-c2ncn(-c3ccc(OC(F)(F)F)cc3)n2)cc1 [Compound 76C] | 50 to 100 | 0 to 80 | 50 to 100 |  | 
Cc1cccc(C)c1-n1c(-c2ccc(C(=O)O)cc2)cs/c1=N\N=Cc1ccc(-c2ncn(-c3ccc(OC(F)(F)F)cc3)n2)cc1 [Compound 77C] | 50 to 100 | 0 to 80 | 50 to 100 |  | 
Cc1cccc(C)c1-n1c(-c2ccc(OC(F)(F)F)cc2)cs/c1=N\N=Cc1ccc(-c2ncn(-c3ccc(OC(F)(F)F)cc3)n2)cc1 [Compound 78C] | 50 to 100 | 0 to 80 | 50 to 100 |  | 
Cc1cccc(C)c1-n1c(-c2ccc(C(F)(F)F)cc2)cs/c1=N\N=Cc1ccc(-c2ncn(-c3ccc(OC(F)(F)F)cc3)n2)cc1 [Compound 79C] | 50 to 100 | 0 to 80 | 50 to 100 |  | 
COc1cc(C)c(-n2c(C(=O)O)cs/c2=N\N=Cc2ccc(-c3ncn(-c4ccc(OC(F)(F)F)cc4)n3)cc2)c(C)c1 [Compound 80C] | 50 to 100 | 0 | 50 to 100 |  | 
Cc1cccc(C)c1/N=C1\SCC(=O)N1/N=C/c1ccc(-c2ncn(-c3ccc(OC(F)(F)F)cc3)n2)cc1 [Compound 81C] | 50 to 100 | 0 | 50 to 100 |  | 
CC1S/C(=N\N=C\c2ccc(-c3ncn(-c4ccc(OC(F)(F)F)cc4)n3)cc2)N(c2ccccc2C(C)C)C1=O (stereo not drawn) [Compound 88C] | 50 to 100 | 0 to 80 | 50 to 100 |  | 
O=C1CS/C(=N\N=C\c2ccc(-c3ncn(-c4ccc(OC(F)(F)F)cc4)n3)cc2)N1c1c(F)cccc1F [Compound 89C] | 50 to 100 | 0 | 50 to 100 |  | 
COc1ccccc1N1C(=O)CS/C1=N\N=C\c1ccc(-c2ncn(-c3ccc(OC(F)(F)F)cc3)n2)cc1 [Compound 92C] | 50 to 100 | 0 to 80 | 50 to 100 |  | 
Cc1cccc(Cl)c1N1C(=O)CS/C1=N\N=C\c1ccc(-c2ncn(-c3ccc(OC(F)(F)F)cc3)n2)cc1 [Compound 93C] | 50 to 100 | 0 | 50 to 100 |  | 
CCc1ccccc1N1C(=O)CS/C1=N\N=C\c1ccc(-c2ncn(-c3ccc(OC(F)(F)F)cc3)n2)cc1 [Compound 94C] | 50 to 100 | 0 | 50 to 100 |  | 
O=C1CS/C(=N\N=C\c2ccc(-c3ncn(-c4ccc(OC(F)(F)F)cc4)n3)cc2)N1c1c(F)cccc1Cl [Compound 95C] | 50 to 100 | 0 to 80 | 50 to 100 |  | 
O=C1CS/C(=N\N=C\c2ccc(-c3ncn(-c4ccc(OC(F)(F)F)cc4)n3)cc2)N1c1ccccc1-c1ccccc1 [Compound 96C] | 50 to 100 | 0 to 80 | 50 to 100 |  | 
CCC(C)c1ccccc1N1C(=O)CS/C1=N\N=C\c1ccc(-c2ncn(-c3ccc(OC(F)(F)F)cc3)n2)cc1 (stereo not drawn) [Compound 108C] | 50 to 100 | 0 | 50 to 100 |  | 
CCc1cccc(C)c1N1C(=O)CS/C1=N\N=C\c1ccc(-c2ncn(-c3ccc(OC(F)(F)F)cc3)n2)cc1 [Compound 111C] | 50 to 100 | 0 to 80 | 50 to 100 |  | 
O=C1CS/C(=N\N=C\c2ccc(-c3ncn(-c4ccc(OC(F)(F)F)cc4)n3)cc2)N1c1ccccc1C1CC1 [Compound 112C] | 50 to 100 | 0 to 80 | 50 to 100 |  | 
Cc1cccnc1N1C(=O)CS/C1=N\N=C\c1ccc(-c2ncn(-c3ccc(OC(F)(F)F)cc3)n2)cc1 [Compound 117C] | 50 to 100 | 0 | 50 to 100 |  | 
Cc1cnccc1N1C(=O)CS/C1=N\N=C\c1ccc(-c2ncn(-c3ccc(OC(F)(F)F)cc3)n2)cc1 [Compound 118C] | 50 to 100 | 0 | 50 to 100 |  | 
CC(C)Cc1ccccc1N1C(=O)CS/C1=N\N=C\c1ccc(-c2ncn(-c3ccc(OC(F)(F)F)cc3)n2)cc1 [Compound 119C] | 50 to 100 | 0 | 50 to 100 |  | 
CC(C)=Cc1ccccc1N1C(=O)CS/C1=N\N=C\c1ccc(-c2ncn(-c3ccc(OC(F)(F)F)cc3)n2)cc1 [Compound 121C] | 50 to 100 | 0 to 80 | 50 to 100 |  | 
